In brackets after ≈: the same amount, converted by molar mass. Like-named read-outs stand apart in the source and are kept apart here.
What was measured:
M. kansasii DSM 44162 = assay: In vitro antimycobacterial evaluation, broth dilution micro-method; assay type: cell-based; details: Mycobacterium kansasii, DSM44162, read-out: MIC M. kansasii DSM 44162
[1] = Lipophilicity log k by RP-HPLC; assay type: physicochemical; details: logarithm of capacity factor, experimentally determined by RP-HPLC
[2] = system: Staphylococcus aureus ATCC 29213; assay: In vitro antibacterial evaluation, broth dilution micro-method MIC; assay type: cell-based
[3] = system: MRSA1, methicillin-resistant S. aureus clinical isolate SA 3202; assay: as above; assay type: cell-based; details: Staphylococcus aureus, MRSA, read-out: MIC MRSA1
[4] = system: MRSA2, methicillin-resistant S. aureus clinical isolate SA 630; assay: as above; assay type: cell-based; details: Staphylococcus aureus, MRSA, read-out: MIC MRSA2
[5] = system: MRSA3, methicillin-resistant S. aureus clinical isolate 63718; assay: as above; assay type: cell-based; details: Staphylococcus aureus, read-out: MIC MRSA3
[6] = system: human monocytic leukemia cell line THP-1; assay: In vitro cell viability analysis; assay type: cell-based; details: read-out: IC50 THP-1
S. aureus ATCC 29213 [7] = assay: Dynamics of antibacterial effect; assay type: cell-based, Staphylococcus aureus; details: time-kill curves, 1×, 2× (SB3–Cu also 4×) MIC, up to 24 h
[8] = system: mature S. aureus ATCC 29213 biofilm; assay: Biofilm disruption / eradication of mature biofilm; assay type: cell-based, Staphylococcus aureus
E. faecalis ATCC 29213 = assay: In vitro anti-enterococcal MIC, broth dilution micro-method; assay type: cell-based; details: Enterococcus faecalis, ATCC29213, 24 h, read-out: MIC E. faecalis ATCC 29213
[9] = system: VRE 342B, vancomycin-resistant E. faecalis; assay: as above; assay type: cell-based, Enterococcus faecalis; details: 24 h, read-out: MIC VRE 342B
[10] = system: VRE 368, vancomycin-resistant E. faecalis; assay: as above; assay type: cell-based, Enterococcus faecalis; details: 24 h, read-out: MIC VRE 368
[11] = system: VRE 725 B, vancomycin-resistant E. faecalis; assay: as above; assay type: cell-based, Enterococcus faecalis; details: 24 h, read-out: MIC VRE 725 B
[12] = system: non-cancer human renal proximal tubule epithelial TH-1 cells; details: read-out: IC50 TH-1; cytotoxicity, non-cancer renal TH-1 cells; cited from earlier work
[13] = system: breast cancer MCF-7 cells; details: through creation of ROS, disruption of mitochondrial membrane potential; cited from earlier work
S. aureus ATCC 29213 [14] = assay: MTT assay, inhibition of respiratory activity; assay type: cell-based, Staphylococcus aureus; details: at 16 × MIC
[15] = ATCC29213, 24 h, read-out: MIC SA

| SMILES | log k [1] | MIC [2, 15] [µg/mL] | MIC ([2]; ATCC29213, read-out: MIC SA) [µM] | MIC ([3]; 24 h) [µg/mL] | MIC [3] [µM] | MIC ([4]; 24 h) [µg/mL] | MIC [4] [µM] | MIC ([5]; 24 h) [µg/mL] | MIC [5] [µM] | IC50 ([6]; Homo sapiens, THP-1, 24 h) [µM] | MIC (E. faecalis ATCC 29213) [µg/mL] | MIC [9] [µg/mL] | MIC [10] [µg/mL] | MIC [11] [µg/mL] | IC50 [12] [µM] | also measured |
| --- | --- | --- | --- | --- | --- | --- | --- | --- | --- | --- | --- | --- | --- | --- | --- | --- |
| NNC(=O)c1ccncc1 [INH, isoniazid] | – | – | – | – | – | – | – | – | – | – | – | – | – | – | – | MIC (M. kansasii DSM 44162): 29.1 µM (≈ 3.99 µg/mL) |
| O=C1c2ccccc2NC(c2cc([N+](=O)[O-])ccc2O)N1/N=C/c1cc([N+](=O)[O-])ccc1O (stereo not shown) [SB3, 3-[(E)-(2-hydroxy-5-nitrobenzylidene)amino]-2-(2-hydroxy-5-nitrophenyl)-2,3-dihydroquinazolin-4(1H)-one] | 0.6022 | 32 | 71.2 | 64 | 141 | 16 | 35.6 | 64 | 141 | 12.7 ± 1.2 | 256 (≈ 570 µM) | > 256 | > 256 | > 256 | 432 | Mode of antibacterial action (bactericidal vs bacteriostatic) (S. aureus ATCC 29213 [7]): only bacteriostatically; Reduction of biofilm viability ([8]; at 0.5 × MIC): no effect; Eradication activity on mature biofilm ([8]; at 1 × MIC): 81.7 ± 13.7%; Concentration eradicating 80% of S. aureus biofilm ([8]; mature biofilm, 24 h treatment): 1 × MIC; Apoptosis of MCF-7 cells [13]: induces apoptosis |
| N.N.[Cl][Pt][Cl] [CPT, cisplatin, reference compound] | – | – | – | – | – | – | – | – | – | – | – | – | – | – | – | IC50 ([6]; cell viability, CCK-8, 24 h, ± SD, n = 6): 16.1 ± 1.3 µM |
| COc1cccc(/C=N/N2C(=O)c3ccccc3NC2c2cccc(OC)c2O)c1O (stereo not shown) [SB8, 3-[(E)-(2-hydroxy-3-methoxybenzylidene)amino]-2-(2-hydroxy-3-methoxyphenyl)-2,3-dihydroquinazolin-4(1H)-one] | 0.1689 | > 256 | – | > 256 | – | > 256 | – | > 256 | – | > 50 | > 256 | > 256 | > 256 | > 256 | > 1000 | – |
| CC1(C)S[C@@H]2[C@H](NC(=O)[C@H](N)c3ccccc3)C(=O)N2[C@H]1C(=O)O [AMP, ampicillin, reference compound] | – | 2 | 5.7 | > 16 | > 45.8 | > 16 | > 45.8 | 16 | 45.8 | – | 1 (≈ 2.86 µM) | 4 (≈ 11.4 µM) | 4 (≈ 11.4 µM) | 4 (≈ 11.4 µM) | – | S. aureus Respiration Inhibition (S. aureus ATCC 29213 [14]): 81.9% |

Source: paper PMC11004567 (Heliyon, 2024)
